From patent US11661426B2, “Imidazole-containing inhibitors of ALK2 kinase” (BioCryst Pharmaceuticals, Inc., priority 2017, dated 2023)

Target: ALK2 (Homo sapiens (Human), UniProt Q04771)
Experiment: ALK2 inhibition, LanthaScreen Eu Kinase Binding Assay (ThermoFisher Scientific / Life Technologies)
Conditions: read-out: Measured Ki (IC50) Value for Compounds: IC50
Method: Biochemical assays to measure the inhibitory effects of the compounds were performed by ThermoFisher Scientific (Life Technologies). ALK2 inhibition was tested using LanthaScreen™ Eu Kinase Binding Assay screening protocol.

ALK2, sequence (Q04771 21-509): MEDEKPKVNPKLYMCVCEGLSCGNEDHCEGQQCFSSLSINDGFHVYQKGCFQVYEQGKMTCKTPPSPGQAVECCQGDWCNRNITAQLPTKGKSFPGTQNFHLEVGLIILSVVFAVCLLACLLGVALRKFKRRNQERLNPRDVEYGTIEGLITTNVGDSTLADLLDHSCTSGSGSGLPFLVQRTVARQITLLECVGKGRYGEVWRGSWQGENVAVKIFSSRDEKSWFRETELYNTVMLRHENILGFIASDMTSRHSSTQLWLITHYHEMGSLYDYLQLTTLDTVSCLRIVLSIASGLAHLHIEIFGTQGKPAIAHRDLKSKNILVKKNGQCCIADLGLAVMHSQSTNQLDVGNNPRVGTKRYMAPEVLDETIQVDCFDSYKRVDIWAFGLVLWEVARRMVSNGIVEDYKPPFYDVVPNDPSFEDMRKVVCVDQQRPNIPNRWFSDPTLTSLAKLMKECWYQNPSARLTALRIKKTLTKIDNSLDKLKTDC

Row | IC50 [nM] | SMILES
1 | < 100 | COc1cc(-n2cnc(Nc3nc(N4CCC[C@H]4CO)c4c(C)nn(C5CCCC5)c4n3)c2)cc(OC)c1OC [Compound 440c, (S)-(1-(1-cyclopentyl-3-methyl-6-((1-(3,4,5-trimethoxyphenyl)-1H-imidazol-4-yl)amino)-1H-pyrazolo[3,4-d]pyrimidin-4-yl)pyrrolidin-2-yl)methanol]
2 | < 100 | COc1cc(-n2cnc(Nc3nc(N4CCC[C@H]4CO)c4ccncc4n3)c2)cc(OC)c1OC [Compound 381b, (S)-(1-(2-((1-(3,4,5-trimethoxyphenyl)-1H-imidazol-4-yl)amino)pyrido[3,4-d]pyrimidin-4-yl)pyrrolidin-2-yl)methanol]
3 | < 100 | COc1cc(-n2cnc(Nc3nc(N4CCC[C@@H]4CO)nc4scnc34)c2)cc(OC)c1OC [Compound 317a, (R)-(1-(7-((1-(3,4,5-trimethoxyphenyl)-1H-imidazol-4-yl)amino)thiazolo[5,4-d]pyrimidin-5-yl)pyrrolidin-2-yl)methanol]
4 | 100 to 1000 | COc1cc(-n2cnc(Nc3nc(N4CCC[C@H]4CO)nc4cnn(C)c34)c2)cc(OC)c1OC [Compound 316a, (S)-(1-(1-methyl-7-((1-(3,4,5-trimethoxyphenyl)-1H-imidazol-4-yl)amino)-1H-pyrazolo[4,3-d]pyrimidin-5-yl)pyrrolidin-2-yl)methanol]
5 | < 100 | COc1cc(-n2cnc(Nc3nc(N4CCC[C@H]4CO)c4c(C)nn([C@H]5CC[C@@H](O)CC5)c4n3)c2)cc(OC)c1OC [Compound 447c, (cis)-4-(4-((S)-2-(hydroxymethyl)pyrrolidin-1-yl)-3-methyl-6-((1-(3,4,5-trimethoxyphenyl)-1H-imidazol-4-yl)amino)-1H-pyrazolo[3,4-d]pyrimidin-1-yl)cyclohexanol]
6 | < 100 | COc1cc(-n2cnc(Nc3nc4c(c(N5CCC[C@H]5CO)n3)CN(C(=O)OC(C)(C)C)C4)c2)cc(OC)c1OC [Compound 359c, (S)-tert-butyl 4-(2-(hydroxymethyl)pyrrolidin-1-yl)-2-(1-(3,4,5-trimethoxyphenyl)-1H-imidazol-4-ylamino)-5H-pyrrolo[3,4-d]pyrimidine-6(7H)-carboxylate]
7 | < 100 | COc1cc(-n2cnc(Nc3nc(N4CCC[C@H]4CO)nc4cc(CN5CCCC5)ccc34)c2)cc(OC)c1OC [Compound 399f, (S)-(1-(7-(pyrrolidin-1-ylmethyl)-4-((1-(3,4,5-trimethoxyphenyl)-1H-imidazol-4-yl)amino)quinazolin-2-yl)pyrrolidin-2-yl)methanol]
8 | < 100 | COc1cc(-n2cnc(Nc3nc(N4CCC[C@H]4CO)nc4cc(N5CCN(C)CC5)ccc34)c2)cc(OC)c1OC [Compound 375a, (S)-(1-(7-(4-methylpiperazin-1-yl)-4-((1-(3,4,5-trimethoxyphenyl)-1H-imidazol-4-yl)amino)quinazolin-2-yl)pyrrolidin-2-yl)methanol]
9 | < 100 | COc1cc(-n2cnc(Nc3nc(N4CCC[C@H]4CO)c4cnn(C5CCCCO5)c4n3)c2)cc(OC)c1OC (stereo partly drawn) [Compound 430b, ((2S)-1-(1-(tetrahydro-2H-pyran-2-yl)-6-((1-(3,4,5-trimethoxyphenyl)-1H-imidazol-4-yl)amino)-1H-pyrazolo[3,4-d]pyrimidin-4-yl)pyrrolidin-2-yl)methanol]
10 | 100 to 1000 | COc1cc(-n2cnc(Nc3cc4ccccc4c(N4CCC[C@H]4CO)n3)c2)cc(OC)c1OC [Compound 346c, (S)-(1-(3-((1-(3,4,5-trimethoxyphenyl)-1H-imidazol-4-yl)amino)isoquinolin-1-yl)pyrrolidin-2-yl)methanol]

Further lines, the molecule ahead of its results:

Row | SMILES | IC50 [nM]
11 | OC[C@@H]1CCCN1c1nc(Nc2cn(-c3cccc4ncccc34)cn2)c2cccn2n1 [Compound 76c, (S)-(1-(4-((1-(quinolin-5-yl)-1H-imidazol-4-yl)amino)pyrrolo[2,1-f][1,2,4]triazin-2-yl)pyrrolidin-2-yl)methanol] | < 100
12 | COc1cc(OC)cc(-n2cnc(Nc3nc(N4CCC[C@H]4C(N)=O)nn4cccc34)c2)c1 [Compound 131a, (S)-1-(4-((1-(3,5-dimethoxyphenyl)-1H-imidazol-4-yl)amino)pyrrolo[2,1-f][1,2,4]triazin-2-yl)pyrrolidine-2-carboxamide] | < 100
13 | COc1cc(-n2cnc(Nc3nc(N4CCC[C@H]4C(N)=O)nc4c3CN(Cc3ccccc3)CC4)c2)cc(OC)c1OC [Compound 152a, (S)-1-(6-benzyl-4-(1-(3,4,5-trimethoxyphenyl)-1H-imidazol-4-ylamino)-5,6,7,8-tetrahydropyrido[4,3-d]pyrimidin-2-yl)pyrrolidine-2-carboxamide] | 100 to 1000
14 | COc1cc(-n2cnc(Nc3nc(N4CCC[C@H]4CO)nc4c(OC(C)C)cccc34)c2)cc(OC)c1OC [Compound 144a, (S)-(1-(8-isopropoxy-4-((1-(3,4,5-trimethoxyphenyl)-1H-imidazol-4-yl)amino)quinazolin-2-yl)pyrrolidin-2-yl)methanol] | < 100
15 | c1ccc([C@@H]2CCCN2c2nc(Nc3cn(C4CCC4)cn3)c3cccn3n2)nc1 [Compound 64a, (S)—N-(1-cyclobutyl-1H-imidazol-4-yl)-2-(2-(pyridin-2-yl)pyrrolidin-1-yl)pyrrolo[2,1-f][1,2,4]triazin-4-amine] | < 100
16 | COc1cc(-n2cnc(Nc3nc(N4CCC[C@@H]4CO)nc4ccsc34)c2)cc(OC)c1OC [Compound 303a, (R)-(1-(4-((1-(3,4,5-trimethoxyphenyl)-1H-imidazol-4-yl)amino)thieno[3,2-d]pyrimidin-2-yl)pyrrolidin-2-yl)methanol] | < 100
17 | COc1cc(-n2cnc(Nc3nc(N4CCC[C@@H]4CO)nc4sccc34)c2)cc(OC)c1OC [Compound 297a, (R)-(1-(4-((1-(3,4,5-trimethoxyphenyl)-1H-imidazol-4-yl)amino)thieno[2,3-d]pyrimidin-2-yl)pyrrolidin-2-yl)methanol] | < 100
18 | COc1cc(-n2cnc(Nc3nc(N4CCC[C@H]4CO)nc4sc(CN5CCC(O)CC5)cc34)c2)cc(OC)c1OC [Compound 102b, (S)-1-((2-(2-(hydroxymethyl)pyrrolidin-1-yl)-4-((1-(3,4,5-trimethoxyphenyl)-1H-imidazol-4-yl)amino)thieno[2,3-d]pyrimidin-6-yl)methyl)piperidin-4-ol] | < 100
19 | COc1cc(-n2cnc(Nc3nc(N4CCC[C@H]4CO)nn4c(CN5CCCCC5)ccc34)c2)cc(OC)c1OC [Compound 105b, (S)-(1-(7-(piperidin-1-ylmethyl)-4-((1-(3,4,5-trimethoxyphenyl)-1H-imidazol-4-yl)amino)pyrrolo[2,1-f][1,2,4]triazin-2-yl)pyrrolidin-2-yl)methanol] | < 100
20 | COc1cc(-n2cnc(Nc3nc(N4CCC[C@H]4CO)c4sccc4n3)c2)cc(OC)c1OC [Compound 138b, (S)-(1-(2-((1-(3,4,5-trimethoxyphenyl)-1H-imidazol-4-yl)amino)thieno[3,2-d]pyrimidin-4-yl)pyrrolidin-2-yl)methanol] | < 100
21 | COc1cc(-n2cnc(Nc3nc(N4CCC[C@H]4C(C)(C)O)c4cccn4n3)c2)cc(OC)c1OC [Compound 222b, (S)-2-(1-(2-((1-(3,4,5-trimethoxyphenyl)-1H-imidazol-4-yl)amino)pyrrolo[2,1-f][1,2,4]triazin-4-yl)pyrrolidin-2-yl)propan-2-ol] | < 100
22 | Cn1cnc(Nc2nc(N3CCCC3c3ccccn3)nc3ccsc23)c1 (stereo not shown) [Compound 12c, N-(1-methyl-1H-imidazol-4-yl)-2-(2-(pyridin-2-yl)pyrrolidin-1-yl)thieno[3,2-d]pyrimidin-4-amine] | < 100
